Holding throughout (assay): KINOMEscan
Holding throughout (type): binding
What all share (conditions): read-out: % control activity remaining

Test [1] addresses T1, PLK4 (Homo sapiens, UniProt O00444).
T1 construct: purchased Eurofins DiscoverX KINOMEscan
T1 sequence (O00444 1-970): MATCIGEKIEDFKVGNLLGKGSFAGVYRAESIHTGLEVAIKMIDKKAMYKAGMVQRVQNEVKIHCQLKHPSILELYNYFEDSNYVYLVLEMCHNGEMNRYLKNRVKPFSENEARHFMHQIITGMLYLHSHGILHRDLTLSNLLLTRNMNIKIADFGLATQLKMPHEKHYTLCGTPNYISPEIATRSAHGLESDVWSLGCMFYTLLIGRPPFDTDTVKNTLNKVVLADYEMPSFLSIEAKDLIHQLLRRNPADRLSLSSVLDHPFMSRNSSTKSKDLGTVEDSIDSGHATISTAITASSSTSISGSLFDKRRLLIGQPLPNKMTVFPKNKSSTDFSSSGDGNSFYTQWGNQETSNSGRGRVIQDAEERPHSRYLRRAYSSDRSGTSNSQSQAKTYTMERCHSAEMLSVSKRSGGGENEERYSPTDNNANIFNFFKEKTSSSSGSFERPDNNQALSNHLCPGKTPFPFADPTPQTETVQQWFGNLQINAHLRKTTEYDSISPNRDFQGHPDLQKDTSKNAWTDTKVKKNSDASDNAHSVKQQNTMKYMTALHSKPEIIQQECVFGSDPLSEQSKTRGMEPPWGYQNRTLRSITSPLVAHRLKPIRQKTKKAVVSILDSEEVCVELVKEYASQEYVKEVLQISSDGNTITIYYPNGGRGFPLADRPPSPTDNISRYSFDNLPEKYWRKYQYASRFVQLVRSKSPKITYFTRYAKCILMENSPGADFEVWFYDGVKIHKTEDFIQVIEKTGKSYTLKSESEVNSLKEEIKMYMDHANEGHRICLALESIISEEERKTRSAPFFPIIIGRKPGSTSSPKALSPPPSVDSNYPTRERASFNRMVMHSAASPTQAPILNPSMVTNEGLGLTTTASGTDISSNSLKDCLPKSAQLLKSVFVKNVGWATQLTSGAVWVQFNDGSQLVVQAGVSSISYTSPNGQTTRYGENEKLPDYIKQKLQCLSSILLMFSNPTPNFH

Test [2] deals with T2, IRAK3 (Homo sapiens, UniProt Q9Y616).
T2 construct: purchased Eurofins DiscoverX KINOMEscan
T2 sequence (Q9Y616 1-596): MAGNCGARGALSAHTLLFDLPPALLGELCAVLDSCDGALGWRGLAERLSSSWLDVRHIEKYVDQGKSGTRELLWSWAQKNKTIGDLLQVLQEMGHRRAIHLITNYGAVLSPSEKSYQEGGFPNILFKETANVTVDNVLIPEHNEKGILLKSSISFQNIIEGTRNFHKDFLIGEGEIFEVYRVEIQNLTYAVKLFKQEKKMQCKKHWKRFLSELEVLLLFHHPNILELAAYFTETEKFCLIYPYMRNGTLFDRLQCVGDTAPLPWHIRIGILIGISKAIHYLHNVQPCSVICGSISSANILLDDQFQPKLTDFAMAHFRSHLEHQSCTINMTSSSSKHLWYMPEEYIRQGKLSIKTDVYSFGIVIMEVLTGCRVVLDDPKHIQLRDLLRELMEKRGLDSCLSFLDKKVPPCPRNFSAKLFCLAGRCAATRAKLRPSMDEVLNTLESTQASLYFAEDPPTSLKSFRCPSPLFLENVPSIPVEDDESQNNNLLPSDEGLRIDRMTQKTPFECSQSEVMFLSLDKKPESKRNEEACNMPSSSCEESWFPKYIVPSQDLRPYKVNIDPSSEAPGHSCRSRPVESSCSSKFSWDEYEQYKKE

Test [3] addresses T3, ERK5 (Homo sapiens, UniProt Q13164).
T3 construct: purchased Eurofins DiscoverX KINOMEscan

In test [4] the target is T4, BRSK2 (Homo sapiens, UniProt Q8IWQ3).
T4 construct: purchased Eurofins DiscoverX KINOMEscan
T4 sequence (Q8IWQ3 1-736): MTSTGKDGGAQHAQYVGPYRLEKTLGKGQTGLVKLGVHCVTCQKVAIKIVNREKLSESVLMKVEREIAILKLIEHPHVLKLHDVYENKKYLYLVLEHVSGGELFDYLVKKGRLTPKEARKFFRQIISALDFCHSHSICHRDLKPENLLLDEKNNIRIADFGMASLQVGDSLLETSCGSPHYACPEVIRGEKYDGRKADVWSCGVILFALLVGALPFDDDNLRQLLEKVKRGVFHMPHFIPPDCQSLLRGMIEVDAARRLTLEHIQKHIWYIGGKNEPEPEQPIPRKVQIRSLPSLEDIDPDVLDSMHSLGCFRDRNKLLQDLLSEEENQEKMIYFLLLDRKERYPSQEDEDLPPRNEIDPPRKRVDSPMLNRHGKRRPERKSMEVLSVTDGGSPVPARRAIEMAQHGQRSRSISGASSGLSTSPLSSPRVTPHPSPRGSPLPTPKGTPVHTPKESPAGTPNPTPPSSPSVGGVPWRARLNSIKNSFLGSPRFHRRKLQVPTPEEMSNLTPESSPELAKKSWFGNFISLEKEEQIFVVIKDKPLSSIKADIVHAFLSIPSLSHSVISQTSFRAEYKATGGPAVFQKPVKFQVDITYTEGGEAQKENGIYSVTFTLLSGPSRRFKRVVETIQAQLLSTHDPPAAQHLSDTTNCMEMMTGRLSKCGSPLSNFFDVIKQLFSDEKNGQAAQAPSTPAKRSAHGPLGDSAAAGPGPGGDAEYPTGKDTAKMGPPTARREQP

Test [5] has as its target T5, JNK1 (Homo sapiens, UniProt P45983).
T5 construct: purchased Eurofins DiscoverX KINOMEscan

T5 sequence (P45983 whole entry): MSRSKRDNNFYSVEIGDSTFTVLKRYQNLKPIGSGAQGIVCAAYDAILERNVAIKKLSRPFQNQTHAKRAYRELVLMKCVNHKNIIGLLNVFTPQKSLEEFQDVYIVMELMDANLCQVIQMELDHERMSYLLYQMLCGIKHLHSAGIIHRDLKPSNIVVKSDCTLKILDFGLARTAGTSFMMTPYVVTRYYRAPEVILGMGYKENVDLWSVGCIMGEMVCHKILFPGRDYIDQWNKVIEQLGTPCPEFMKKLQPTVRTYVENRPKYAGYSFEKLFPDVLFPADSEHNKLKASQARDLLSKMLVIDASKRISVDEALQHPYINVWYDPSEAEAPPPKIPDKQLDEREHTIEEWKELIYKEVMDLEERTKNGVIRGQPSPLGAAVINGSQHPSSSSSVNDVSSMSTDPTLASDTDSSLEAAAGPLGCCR
T3 sequence (Q13164 whole entry): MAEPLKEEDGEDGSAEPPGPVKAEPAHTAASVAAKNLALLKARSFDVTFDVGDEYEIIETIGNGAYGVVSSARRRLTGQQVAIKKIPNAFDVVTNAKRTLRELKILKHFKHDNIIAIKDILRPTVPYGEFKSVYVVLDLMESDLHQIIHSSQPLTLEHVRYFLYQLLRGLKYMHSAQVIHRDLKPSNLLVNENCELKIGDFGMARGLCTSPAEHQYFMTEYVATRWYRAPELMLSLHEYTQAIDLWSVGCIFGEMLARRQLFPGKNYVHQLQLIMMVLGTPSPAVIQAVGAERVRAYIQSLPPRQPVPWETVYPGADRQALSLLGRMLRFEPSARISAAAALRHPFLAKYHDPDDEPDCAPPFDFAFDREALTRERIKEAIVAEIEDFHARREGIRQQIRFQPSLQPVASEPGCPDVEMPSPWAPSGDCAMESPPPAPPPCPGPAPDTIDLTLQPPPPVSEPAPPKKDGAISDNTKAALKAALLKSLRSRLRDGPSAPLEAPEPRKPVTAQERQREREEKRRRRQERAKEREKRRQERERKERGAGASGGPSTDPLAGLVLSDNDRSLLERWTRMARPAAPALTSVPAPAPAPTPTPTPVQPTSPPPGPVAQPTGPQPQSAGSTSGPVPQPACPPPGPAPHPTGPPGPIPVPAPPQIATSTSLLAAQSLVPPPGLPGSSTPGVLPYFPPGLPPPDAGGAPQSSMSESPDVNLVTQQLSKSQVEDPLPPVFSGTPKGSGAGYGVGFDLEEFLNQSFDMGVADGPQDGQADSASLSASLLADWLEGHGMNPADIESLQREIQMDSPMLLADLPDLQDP

As to `Clc1cc(NCC2CC2)c2ncc(-c3ccc4[nH]ncc4c3)n2n1` [compound 2, 6-Chloro-N-(cyclopropylmethyl)-3-(1H-indazol-5-yl)imidazo[1,2-b]pyridazin-8-amine], the remaining binding at 1 µM in test [1] was 87%; in test [2], 100%; in test [3], 100%; in test [4], 100%; in test [5], 91%.
As to `O=C(CN1CCOCC1)N[C@H]1CC[C@H](Nc2cc(Cl)nn3c(-c4ccc5[nH]ncc5c4)cnc23)CC1` [compound 26], the remaining binding at 1 µM in test [1] was determined as 100%; in test [2], 49%; in test [3], 98%; in test [4] it was 98%; in test [5], 83%.
For `CN1CCC(CNc2cc(Cl)nn3c(-c4cc5nc(Nc6ccccc6)[nH]c5cc4F)cnc23)CC1` [compound 31, 6-Chloro-3-(6-fluoro-2-(phenylamino)-1H-benzo[d]imidazol-5-yl)-N-((1-methylpiperidin-4-yl)methyl)imidazo[1,2-b]pyridazin-8-amine], the remaining binding at 1 µM in test [1] was determined as 99%; in test [2], 95%; in test [3], 87%; in test [4], 84%; in test [5], 67%.

These data come from article PMC6437697 (Journal of Medicinal Chemistry, 2019).
